# Data published in US10570123B2 (SURFACE LOGIX, LLC, priority 2005, dated 2020).
# Tests used:
# PKC = assay: Inhibition of PKC (FIG. 10 comparison); format: biochemical; conditions: FIG. 10 legend, qualitative
# ROCK2 = ROCK2 (Homo sapiens (Human), UniProt O75116); assay: Inhibition of ROCK2; format: biochemical; conditions: FIG. 10 legend, qualitative
# Description: Methods of determining kinase inhibition are well known in the art. For example, kinase activity of an enzyme and the inhibitory capacity of a test compound can be determined by measuring enzyme specific phosphorylation of a substrate. Commercial assays and kits can be employed. For example, kinase inhibition can be determined using an IMAP® assay (Molecular Devices). This assay method involves the use of a fluorescently-tagged peptide substrate. Phosphorylation of the tagged peptide by a kinase of interest promotes binding of the peptide to a trivalent metal-based nanoparticle via the specific, high affinity interaction between the phospho-group and the trivalent metal. Proximity to the nanoparticle results in increased fluorescence polarization. Inhibition of the kinase by a kinase inhibitor prevents phosphorylation of the substrate and thereby limits binding of the fluorescently-tagged substrate to the nanoparticle. […]
# ROCK-II inhibitory activity can be measured using the ROCK-II Assay Kit (Molecular Devices, inc.; Sunnyvale, Calif.).
# Inhibition of ROCK2 by various compounds was determined.
# Inhibitory activity for Rho kinase was determined for examples of compounds of the present invention. […] For each of these compounds their inhibitory activity for both ROCK 1 and ROCK 2 was determined. […]
# Chain of ROCK2 (O75116 whole entry, species assumed): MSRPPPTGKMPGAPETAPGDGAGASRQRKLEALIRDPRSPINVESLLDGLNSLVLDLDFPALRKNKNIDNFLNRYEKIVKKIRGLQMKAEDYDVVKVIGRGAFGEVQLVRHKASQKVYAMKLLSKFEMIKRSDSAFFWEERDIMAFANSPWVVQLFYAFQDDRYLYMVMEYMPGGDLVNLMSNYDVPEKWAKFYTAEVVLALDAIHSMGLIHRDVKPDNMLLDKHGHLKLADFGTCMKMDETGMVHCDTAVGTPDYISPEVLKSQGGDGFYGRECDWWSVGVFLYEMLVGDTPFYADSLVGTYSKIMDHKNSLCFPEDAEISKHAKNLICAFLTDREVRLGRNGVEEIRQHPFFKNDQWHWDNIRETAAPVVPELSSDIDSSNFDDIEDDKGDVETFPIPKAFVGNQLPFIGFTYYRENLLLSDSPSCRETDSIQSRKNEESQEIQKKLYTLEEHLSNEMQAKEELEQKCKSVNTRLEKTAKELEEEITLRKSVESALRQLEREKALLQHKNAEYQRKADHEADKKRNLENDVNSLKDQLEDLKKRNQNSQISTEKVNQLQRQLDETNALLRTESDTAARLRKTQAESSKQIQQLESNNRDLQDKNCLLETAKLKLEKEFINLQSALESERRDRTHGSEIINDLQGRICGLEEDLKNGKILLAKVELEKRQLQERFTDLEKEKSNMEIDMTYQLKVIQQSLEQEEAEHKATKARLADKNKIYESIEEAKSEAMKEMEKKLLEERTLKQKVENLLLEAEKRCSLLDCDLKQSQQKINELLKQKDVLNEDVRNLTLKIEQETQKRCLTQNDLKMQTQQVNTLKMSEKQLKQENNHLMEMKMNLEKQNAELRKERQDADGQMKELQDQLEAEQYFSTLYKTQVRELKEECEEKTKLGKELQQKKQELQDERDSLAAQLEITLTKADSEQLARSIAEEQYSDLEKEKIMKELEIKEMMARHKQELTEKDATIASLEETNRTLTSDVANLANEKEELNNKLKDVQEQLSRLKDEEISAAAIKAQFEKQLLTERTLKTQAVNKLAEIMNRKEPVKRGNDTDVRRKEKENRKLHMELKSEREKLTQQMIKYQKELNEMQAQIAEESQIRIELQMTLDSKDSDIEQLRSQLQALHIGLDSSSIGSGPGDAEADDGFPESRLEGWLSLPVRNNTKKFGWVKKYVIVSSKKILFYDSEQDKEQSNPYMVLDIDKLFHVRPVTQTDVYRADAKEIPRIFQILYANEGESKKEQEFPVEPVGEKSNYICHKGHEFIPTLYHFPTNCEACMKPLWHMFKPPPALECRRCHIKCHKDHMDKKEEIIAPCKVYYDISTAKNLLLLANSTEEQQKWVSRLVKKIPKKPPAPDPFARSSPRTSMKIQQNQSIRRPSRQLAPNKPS
SMILES,inhibition of PKC (FIG. 10) (PKC),inhibition of ROCK2 (FIG. 10) (ROCK2)
C[C@@H](N)[C@H]1CC[C@H](C(=O)Nc2ccncc2)CC1 [Example Y27632],inhibits,inhibits
"CC(C)NC(=O)COc1cccc(-c2nc(Nc3ccc4[nH]ncc4c3)c3ccccc3n2)c1 [Example 82, 2-(3-(4-(1H-indazol-5-ylamino)quinazolin-2-yl)phenoxy)-N-isopropylacetamide]",–,specific inhibition of ROCK2
